The results in this text go back to PubChem BioAssay (NCI).

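Cultured in 96-well plates, cells were exposed to test compound for 48 hours across five concentrations. Here, GI50 denotes the concentration required for 50% inhibition of growth. TGI: concentration producing complete growth inhibition.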 Where only a bound is given, the exact number is not on record here.

Among the test systems are A498 renal; RXF 393 renal; 786-0 renal; U251 CNS; OVCAR-3 ovarian; MOLT-4 leukemia; PC-3 prostate; SK-OV-3 ovarian; NCI-H460 lung; HT29 colon.
What all share (experiment): NCI-60 cell line screen, 48 h

For `N#C/C(=C/C=C(\Cl)c1ccc(Cl)cc1)C(N)=O`, the GI50 with A498 renal is 13.2 µM; with RXF 393 renal it was 3.75 µM; in the experiment with 786-0 renal, 1.87 µM; in the experiment with U251 CNS, 2.29 µM; with OVCAR-3 ovarian, 0.269 µM; with MOLT-4 leukemia, 0.66 µM. For the same compound, the GI50 in the experiment with PC-3 prostate was 2.18 µM; in the experiment with SK-OV-3 ovarian, 14.9 µM; in the experiment with NCI-H460 lung, 4.65 µM; in the experiment with HT29 colon, 3.38 µM. Also, the TGI is 27.7 µM with A498 renal; > 57.6 µM with RXF 393 renal; 4.2 µM in the experiment on 786-0 renal; 5.32 µM in the experiment on U251 CNS; 1.76 µM with OVCAR-3 ovarian; > 39.8 µM in the experiment on MOLT-4 leukemia. The TGI in the experiment on PC-3 prostate is 5.55 µM; with SK-OV-3 ovarian it was 42.3 µM; in the experiment on NCI-H460 lung it was > 100 µM; in the experiment on HT29 colon, > 36.5 µM.

Consider `O=C1C(Cl)=C(Nc2ccc3cn[nH]c3c2)C(=O)c2ccccc21`, for which the GI50 in the experiment with A498 renal was 3.05 µM; with RXF 393 renal it was 1.54 µM; with 786-0 renal, 1.81 µM; in the experiment on U251 CNS, 1.31 µM; with OVCAR-3 ovarian it was 1.08 µM; with MOLT-4 leukemia it was 1.47 µM. In addition, the GI50 with PC-3 prostate was 1.17 µM; in the experiment with SK-OV-3 ovarian, 12 µM; in the experiment on NCI-H460 lung, 1.7 µM; in the experiment on HT29 colon, 1.98 µM. The TGI in the experiment with A498 renal stood at 8.9 µM; in the experiment with RXF 393 renal, 2.92 µM; in the experiment on 786-0 renal, 3.21 µM; with U251 CNS, 2.58 µM; in the experiment with OVCAR-3 ovarian, 2.27 µM; in the experiment with MOLT-4 leukemia, 4.15 µM. In addition, the TGI in the experiment on PC-3 prostate worked out at 2.44 µM; in the experiment on SK-OV-3 ovarian, 24.3 µM; in the experiment on NCI-H460 lung, 4.14 µM; in the experiment with HT29 colon, 3.72 µM.

As for `COC(=O)c1ccccc1NC(=O)C(=O)CC(=O)c1ccccc1NC1=CC(=O)C(=O)c2ccccc21`, the TGI is > 56.2 µM in the experiment on A498 renal; 57.5 µM with RXF 393 renal; 30.8 µM with 786-0 renal; 67.4 µM with U251 CNS; 12.3 µM with OVCAR-3 ovarian; 51.1 µM in the experiment on MOLT-4 leukemia. The TGI with PC-3 prostate is 42.3 µM; with SK-OV-3 ovarian, 96.1 µM; with NCI-H460 lung, 65.4 µM; in the experiment with HT29 colon it was > 74.9 µM.

As for `Nc1nc2ccc([C@@H]3Nc4ccc5[nH]ncc5c4[C@H]4[C@H]5CCC(C5)[C@H]43)cc2s1`, the GI50 in the experiment on A498 renal was 0.288 µM; in the experiment on RXF 393 renal, 1.47 µM; with 786-0 renal it was 1.4 µM; with U251 CNS it was 1.18 µM; in the experiment on OVCAR-3 ovarian, 0.366 µM; in the experiment with MOLT-4 leukemia it was 0.632 µM. Moreover, the GI50 is 1.04 µM in the experiment on PC-3 prostate, 1.73 µM in the experiment with SK-OV-3 ovarian, 0.81 µM in the experiment on NCI-H460 lung and 0.435 µM in the experiment with HT29 colon. In addition, the TGI in the experiment on A498 renal was 1.78 µM; in the experiment with RXF 393 renal, 7.56 µM; in the experiment on 786-0 renal, 10 µM; in the experiment with U251 CNS, 11.5 µM; in the experiment on OVCAR-3 ovarian, 1.25 µM; in the experiment on MOLT-4 leukemia, 3.05 µM. In addition, the TGI in the experiment with PC-3 prostate is 3.2 µM; with SK-OV-3 ovarian, 3.63 µM; in the experiment on NCI-H460 lung, 2.32 µM; in the experiment with HT29 colon it was 11 µM.

As for `COc1ccc(C2NCCc3c2[nH]c2ccccc32)cc1CN1CCN(c2ccc(F)cc2)CC1` (stereo not given), the GI50 was 0.399 µM with A498 renal; 1.37 µM in the experiment with RXF 393 renal; 1.71 µM with 786-0 renal; 1.56 µM in the experiment with U251 CNS; 2.1 µM in the experiment on OVCAR-3 ovarian; 1.97 µM in the experiment with MOLT-4 leukemia. Further, the GI50 is 2.21 µM in the experiment on PC-3 prostate, 2.53 µM with SK-OV-3 ovarian, 1.85 µM in the experiment on NCI-H460 lung and 1.7 µM with HT29 colon. In addition, the TGI with A498 renal worked out at 4.21 µM; with RXF 393 renal, 2.94 µM; in the experiment on 786-0 renal, 3.17 µM; in the experiment with U251 CNS, 2.93 µM; with OVCAR-3 ovarian, 4.52 µM; with MOLT-4 leukemia, 5.25 µM. Further, the TGI was 5.35 µM in the experiment with PC-3 prostate, 6.01 µM in the experiment with SK-OV-3 ovarian, 3.49 µM with NCI-H460 lung and 3.49 µM with HT29 colon.

On to `O=C1C=CC(=O)C1(Br)Br`, for which the TGI with A498 renal is 27.4 µM; with RXF 393 renal it was 15.9 µM; with 786-0 renal it was 23.8 µM; in the experiment with U251 CNS, 29.1 µM; with OVCAR-3 ovarian, 31.4 µM; in the experiment with MOLT-4 leukemia, > 100 µM. The TGI in the experiment with PC-3 prostate was 33.1 µM; in the experiment on SK-OV-3 ovarian it was 43.2 µM; in the experiment on NCI-H460 lung it was 41.6 µM; with HT29 colon, 32.7 µM.

For `CCCCCCCCOc1ccc(/C=N/Nc2cc(C)nc3ccc(Cl)cc23)cc1`, the GI50 in the experiment on A498 renal is 1.98 µM; with RXF 393 renal it was 1.55 µM; in the experiment with 786-0 renal it was 1.86 µM; with U251 CNS, 1.82 µM; in the experiment on OVCAR-3 ovarian, 2.17 µM; in the experiment on MOLT-4 leukemia, 2.05 µM. Moreover, the GI50 with PC-3 prostate is 1.5 µM; in the experiment on SK-OV-3 ovarian, 1.65 µM; in the experiment on NCI-H460 lung, 2.01 µM; in the experiment with HT29 colon, 1.81 µM. The TGI in the experiment on A498 renal was determined as 3.45 µM; in the experiment on RXF 393 renal it was 2.94 µM; with 786-0 renal, 3.66 µM; in the experiment with U251 CNS, 3.39 µM; in the experiment with OVCAR-3 ovarian, 3.82 µM; in the experiment with MOLT-4 leukemia, 4.93 µM. In addition, the TGI in the experiment with PC-3 prostate is 3.04 µM; in the experiment with SK-OV-3 ovarian it was 3.1 µM; in the experiment on NCI-H460 lung it was 3.87 µM; with HT29 colon it was 3.34 µM.

Regarding `COc1cc2c3c(n(CCCN)c(=O)c2cc1OC)-c1ccc(F)cc1C3=O`, the GI50 is 14.2 µM in the experiment with A498 renal; 7.64 µM in the experiment with RXF 393 renal; 1.34 µM with 786-0 renal; 0.746 µM in the experiment with U251 CNS; 4.46 µM with OVCAR-3 ovarian; 0.385 µM in the experiment with MOLT-4 leukemia. Moreover, the GI50 in the experiment on PC-3 prostate is 1.41 µM; with SK-OV-3 ovarian, 3.87 µM; with NCI-H460 lung, 0.369 µM; in the experiment with HT29 colon it was 1.03 µM. The TGI with A498 renal came to 28.5 µM; in the experiment on RXF 393 renal it was 26.6 µM; with 786-0 renal it was 2.7 µM; in the experiment with U251 CNS it was 6.45 µM; in the experiment with OVCAR-3 ovarian it was 17.4 µM; in the experiment with MOLT-4 leukemia, 4.13 µM. For the same compound, the TGI turned out to be 6.64 µM in the experiment on PC-3 prostate, 17.7 µM in the experiment on SK-OV-3 ovarian, 1.78 µM in the experiment on NCI-H460 lung and 3.18 µM with HT29 colon.

Regarding `N#CC1C(=N)Cc2ccccc2-c2ccccc21` (stereo not given), the GI50 in the experiment with A498 renal was 2.78 µM; with RXF 393 renal, 9.84 µM; with 786-0 renal, 9.66 µM; with U251 CNS it was 4.15 µM; with OVCAR-3 ovarian it was 3.6 µM; with MOLT-4 leukemia, 5 µM. Moreover, the GI50 in the experiment on PC-3 prostate was 12.7 µM; in the experiment with SK-OV-3 ovarian it was 4.92 µM; in the experiment on NCI-H460 lung, 3.92 µM; in the experiment on HT29 colon it was 4.1 µM. For the same compound, the TGI was found to be 14 µM in the experiment on A498 renal; 82.9 µM with RXF 393 renal; 35.2 µM in the experiment on 786-0 renal; 20.6 µM in the experiment with U251 CNS; 13 µM in the experiment on OVCAR-3 ovarian; 43.4 µM in the experiment with MOLT-4 leukemia. Further, the TGI in the experiment on PC-3 prostate is > 100 µM; in the experiment with SK-OV-3 ovarian it was 41.2 µM; in the experiment on NCI-H460 lung it was 18.3 µM; in the experiment on HT29 colon, 19.6 µM.

Consider `O=C1c2ccccc2S(=O)(=O)N1CSC(=S)N1CCCC1`, for which the GI50 with A498 renal was > 100 µM; in the experiment with RXF 393 renal, > 100 µM; with 786-0 renal it was > 100 µM; in the experiment on U251 CNS it was > 100 µM; in the experiment with OVCAR-3 ovarian, > 25.6 µM; with MOLT-4 leukemia it was 8.3 µM. Besides, the GI50 in the experiment with PC-3 prostate was 7.62 µM; in the experiment on SK-OV-3 ovarian, > 100 µM; with NCI-H460 lung, 45.4 µM; in the experiment with HT29 colon, > 100 µM. Also, the TGI with A498 renal, in the experiment with RXF 393 renal, in the experiment with 786-0 renal, with U251 CNS, in the experiment with OVCAR-3 ovarian and in the experiment with MOLT-4 leukemia was > 100 µM throughout. The TGI in the experiment with PC-3 prostate, in the experiment with SK-OV-3 ovarian, in the experiment with NCI-H460 lung and in the experiment on HT29 colon was > 100 µM throughout.

Take `CS(=O)(=O)N1CCN(Cc2cc3nc(-c4cccc5[nH]ncc45)nc(N4CCOCC4)c3s2)CC1` (tested in a mixture with another compound): the GI50 in the experiment with A498 renal was 0.136 µM; in the experiment with RXF 393 renal, 0.0792 µM; in the experiment with 786-0 renal, 0.037 µM; in the experiment on U251 CNS, 0.213 µM; with OVCAR-3 ovarian, 0.0615 µM; with MOLT-4 leukemia, 0.0608 µM. Moreover, the GI50 in the experiment with PC-3 prostate is 0.0823 µM; in the experiment with SK-OV-3 ovarian, 0.0559 µM; in the experiment with NCI-H460 lung, 0.0796 µM; in the experiment with HT29 colon it was 0.074 µM. Further, the TGI with A498 renal was found to be 0.774 µM; in the experiment with RXF 393 renal, 0.371 µM; in the experiment with 786-0 renal, 0.148 µM; in the experiment on OVCAR-3 ovarian, 0.586 µM; in the experiment with SK-OV-3 ovarian, 0.328 µM.

Consider `COc1cc2cc(Oc3ccc(NC(=O)Nc4ccccc4)cc3)c(C)nc2cc1OCCN1CCCCC1`, for which the GI50 is 4.75 µM with A498 renal; 4.42 µM in the experiment with RXF 393 renal; 5.58 µM with 786-0 renal; 5.32 µM in the experiment on U251 CNS; 6.31 µM in the experiment on OVCAR-3 ovarian; 4.98 µM in the experiment on MOLT-4 leukemia. Besides, the GI50 in the experiment on PC-3 prostate was 4.49 µM; in the experiment on SK-OV-3 ovarian it was 7.8 µM; in the experiment with NCI-H460 lung it was 6.05 µM; in the experiment on HT29 colon it was 3.32 µM. The TGI in the experiment on A498 renal amounted to 9.3 µM; in the experiment on RXF 393 renal it was 8.99 µM; in the experiment on 786-0 renal it was 11.1 µM; in the experiment on U251 CNS, 11.4 µM; in the experiment with OVCAR-3 ovarian, 13.3 µM; in the experiment with MOLT-4 leukemia, 11.7 µM. The TGI worked out at 9.83 µM in the experiment on PC-3 prostate, 16.6 µM in the experiment with SK-OV-3 ovarian, 11.2 µM with NCI-H460 lung and 9.35 µM in the experiment on HT29 colon.
